The results in this text go back to ChEMBL document CHEMBL1135773, “Purine and pyrimidine (P2) receptors as drug targets” (J Med Chem, 2002).

Assay [1] addresses T1, P2X purinoceptor 1 (Rattus norvegicus, UniProt P47824).
T1 sequence (P47824 whole entry): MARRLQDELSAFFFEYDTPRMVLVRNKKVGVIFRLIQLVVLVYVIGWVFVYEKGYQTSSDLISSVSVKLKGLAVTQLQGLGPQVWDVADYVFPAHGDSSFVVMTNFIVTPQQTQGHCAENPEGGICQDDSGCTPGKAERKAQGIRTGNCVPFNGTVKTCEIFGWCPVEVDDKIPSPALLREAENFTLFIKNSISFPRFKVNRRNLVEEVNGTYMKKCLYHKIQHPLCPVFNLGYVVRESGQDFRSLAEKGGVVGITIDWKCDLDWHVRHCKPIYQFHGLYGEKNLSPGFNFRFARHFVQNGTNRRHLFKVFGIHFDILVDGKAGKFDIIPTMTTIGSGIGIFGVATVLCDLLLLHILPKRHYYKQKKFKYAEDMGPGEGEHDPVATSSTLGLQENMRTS
Briefly: The compound was evaluated for antagonist activity against P2X purinoceptor 1 (P2X1) like receptor from rat vas deferens. It is filed as functional.

The target of assay [2] is P2Y purinoceptor 1 (Cavia porcellus). Briefly: The compound was evaluated for antagonistic activity at P2Y purinoceptor 1 (P2Y1) from guinea pig taenia coli.
Assay [3] concerns the target P2Y purinoceptor 1 (Meleagris gallopavo). Description: The compound was evaluated for antagonist activity against phospholipase C coupled P2Y purinoceptor 1 (P2Y1) of turkey erythrocytes.
Assay [4] deals with T2, P2X purinoceptor 4 (Rattus norvegicus, UniProt P51577).
T2 sequence (P51577 whole entry): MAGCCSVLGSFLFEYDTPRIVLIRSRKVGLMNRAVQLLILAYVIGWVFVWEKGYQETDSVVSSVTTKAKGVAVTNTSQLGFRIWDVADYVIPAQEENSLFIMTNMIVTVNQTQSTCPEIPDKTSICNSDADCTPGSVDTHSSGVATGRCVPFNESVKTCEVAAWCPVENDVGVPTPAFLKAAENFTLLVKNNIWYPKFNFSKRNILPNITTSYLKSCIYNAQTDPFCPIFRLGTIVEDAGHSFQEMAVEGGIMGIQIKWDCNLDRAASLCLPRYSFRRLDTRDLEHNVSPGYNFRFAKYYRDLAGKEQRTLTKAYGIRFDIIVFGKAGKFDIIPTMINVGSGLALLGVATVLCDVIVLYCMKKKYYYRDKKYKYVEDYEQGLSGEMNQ
Description: Antagonist activity against recombinant rat P2X purinoceptor 4 (P2X4) at 3 uM, expressed in Xenopus oocytes. It is filed as functional, cell-based, Oocyte.

Assay [5] addresses T3, P2X purinoceptor 2 (Rattus norvegicus, UniProt P49653).
T3 sequence (P49653 whole entry): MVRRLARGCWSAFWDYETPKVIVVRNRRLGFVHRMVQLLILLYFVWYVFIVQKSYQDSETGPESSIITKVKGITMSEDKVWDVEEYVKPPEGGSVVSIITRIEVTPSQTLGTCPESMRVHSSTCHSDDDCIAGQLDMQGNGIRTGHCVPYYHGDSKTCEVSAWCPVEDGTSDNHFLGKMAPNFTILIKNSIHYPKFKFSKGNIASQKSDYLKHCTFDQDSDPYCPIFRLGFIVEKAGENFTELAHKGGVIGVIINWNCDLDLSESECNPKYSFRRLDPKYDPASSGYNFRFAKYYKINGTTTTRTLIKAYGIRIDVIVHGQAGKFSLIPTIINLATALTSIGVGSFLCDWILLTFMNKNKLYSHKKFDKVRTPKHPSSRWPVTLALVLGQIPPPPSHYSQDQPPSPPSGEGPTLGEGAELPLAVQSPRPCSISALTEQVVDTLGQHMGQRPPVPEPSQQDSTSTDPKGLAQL
Briefly: Antagonist activity against recombinant rat receptor P2X purinoceptor 2 (P2X2) at 10 uM, expressed in Xenopus oocytes. It is filed as functional, cell-based, Oocyte.

The next assay deals with P2Y purinoceptor 2 (Homo sapiens, UniProt P41231). Description: Evaluated for agonist activity against phospholipase C coupled recombinant human P2Y purinoceptor 2 (P2Y2). Type of assay: functional.
P2Y purinoceptor 2, sequence (P41231 whole entry): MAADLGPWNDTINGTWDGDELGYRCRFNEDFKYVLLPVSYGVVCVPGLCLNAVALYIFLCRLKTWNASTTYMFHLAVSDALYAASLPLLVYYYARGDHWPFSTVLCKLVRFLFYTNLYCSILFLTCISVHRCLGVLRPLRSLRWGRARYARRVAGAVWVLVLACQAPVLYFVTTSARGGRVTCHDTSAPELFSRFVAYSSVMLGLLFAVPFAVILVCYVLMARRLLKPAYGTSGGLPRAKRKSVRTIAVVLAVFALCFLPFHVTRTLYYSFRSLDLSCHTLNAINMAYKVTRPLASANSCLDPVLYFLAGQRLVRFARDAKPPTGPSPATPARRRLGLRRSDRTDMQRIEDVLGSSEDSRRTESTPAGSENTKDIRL
Assay [6] deals with P2X purinoceptor 7 (Homo sapiens) (UniProt Q99572). Briefly: The compound was evaluated for antagonist activity against recombinant human P2X purinoceptor 7 (P2X7). It is filed as functional.
P2X purinoceptor 7 (Homo sapiens), sequence (Q99572 whole entry): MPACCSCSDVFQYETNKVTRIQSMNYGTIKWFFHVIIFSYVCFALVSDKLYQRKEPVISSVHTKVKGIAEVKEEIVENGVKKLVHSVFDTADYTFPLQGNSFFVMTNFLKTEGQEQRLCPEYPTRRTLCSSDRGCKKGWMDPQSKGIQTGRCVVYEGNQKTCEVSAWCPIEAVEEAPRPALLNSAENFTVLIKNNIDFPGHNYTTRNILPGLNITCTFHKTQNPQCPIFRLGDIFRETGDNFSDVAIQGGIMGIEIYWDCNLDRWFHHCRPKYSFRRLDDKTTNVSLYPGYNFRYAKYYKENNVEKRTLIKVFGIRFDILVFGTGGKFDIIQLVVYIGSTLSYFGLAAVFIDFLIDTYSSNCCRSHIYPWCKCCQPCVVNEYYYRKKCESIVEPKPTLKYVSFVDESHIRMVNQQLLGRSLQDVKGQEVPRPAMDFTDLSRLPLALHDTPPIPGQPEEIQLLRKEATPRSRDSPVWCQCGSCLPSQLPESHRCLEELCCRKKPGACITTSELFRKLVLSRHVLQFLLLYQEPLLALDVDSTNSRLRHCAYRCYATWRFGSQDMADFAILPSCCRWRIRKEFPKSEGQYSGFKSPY
The target in assay [7] is P2Y purinoceptor 12 (Rattus norvegicus, UniProt Q9EPX4). Description: Antagonist activity against phospholipase C coupled rat P2Y purinoceptor 12 (P2Y12). It is filed as functional.
P2Y purinoceptor 12 (Rattus norvegicus, UniProt Q9EPX4), sequence (Q9EPX4 whole entry): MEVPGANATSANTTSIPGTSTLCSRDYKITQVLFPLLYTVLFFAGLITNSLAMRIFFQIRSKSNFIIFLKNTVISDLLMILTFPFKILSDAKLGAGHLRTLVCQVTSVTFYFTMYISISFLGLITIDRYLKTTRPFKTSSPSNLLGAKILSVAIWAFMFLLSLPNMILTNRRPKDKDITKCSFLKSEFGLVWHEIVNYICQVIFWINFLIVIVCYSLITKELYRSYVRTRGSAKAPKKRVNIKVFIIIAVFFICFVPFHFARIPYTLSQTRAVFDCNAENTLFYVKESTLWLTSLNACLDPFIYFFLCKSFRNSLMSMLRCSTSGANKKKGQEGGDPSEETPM
Another assay has as its target P2Y purinoceptor 4 (Homo sapiens, UniProt P51582). Description: The compound was evaluated for antagonist activity against phospholipase C coupled recombinant human P2Y purinoceptor 4 (P2Y4). It is filed as functional.
In a further assay the target is P2Y purinoceptor 6 (Homo sapiens, UniProt Q15077). Briefly: The compound was evaluated for agonist activity against phospholipase C coupled recombinant human P2Y purinoceptor 6 (P2Y6). It is filed as functional.
P2Y purinoceptor 6, sequence (Q15077 whole entry): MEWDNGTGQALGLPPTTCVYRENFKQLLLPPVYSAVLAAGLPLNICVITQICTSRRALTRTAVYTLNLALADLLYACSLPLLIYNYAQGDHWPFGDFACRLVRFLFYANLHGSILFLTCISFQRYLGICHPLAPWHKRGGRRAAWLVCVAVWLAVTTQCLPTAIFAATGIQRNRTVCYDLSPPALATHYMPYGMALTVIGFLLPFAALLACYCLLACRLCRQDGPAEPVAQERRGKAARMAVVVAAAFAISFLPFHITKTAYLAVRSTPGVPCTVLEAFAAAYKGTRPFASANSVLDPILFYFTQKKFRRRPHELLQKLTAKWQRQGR
In assay [8] the target is T4, P2X purinoceptor 1 (Homo sapiens, UniProt P51575).
T4 sequence (P51575 whole entry): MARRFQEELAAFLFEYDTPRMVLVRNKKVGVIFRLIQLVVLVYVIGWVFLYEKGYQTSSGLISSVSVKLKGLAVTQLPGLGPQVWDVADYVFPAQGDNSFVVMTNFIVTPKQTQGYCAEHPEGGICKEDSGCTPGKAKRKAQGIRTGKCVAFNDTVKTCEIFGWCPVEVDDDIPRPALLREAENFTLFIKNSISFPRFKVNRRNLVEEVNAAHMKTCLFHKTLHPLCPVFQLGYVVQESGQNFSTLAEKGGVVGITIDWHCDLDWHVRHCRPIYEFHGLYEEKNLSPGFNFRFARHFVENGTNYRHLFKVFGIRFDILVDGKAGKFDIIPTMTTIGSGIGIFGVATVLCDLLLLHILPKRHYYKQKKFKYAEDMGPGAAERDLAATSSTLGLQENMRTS
Briefly: Antagonist activity against recombinant human P2X purinoceptor 1 (P2X1 ). Type of assay: functional.

Assay [9] deals with T2, P2X purinoceptor 4. Description: The compound was evaluated for antagonist activity against recombinant rat P2X purinoceptor 4 (P2X4) 3 uM. Type of assay: functional.
In assay [10] the target is T1, P2X purinoceptor 1. Description: The compound was evaluated for antagonist activity against recombinant rat P2X purinoceptor 1 (P2X1). It is filed as functional.
In assay [11] the target is T3, P2X purinoceptor 2. Briefly: The compound was evaluated for antagonist activity against recombinant rat P2X purinoceptor 2 (P2X2) at 30 uM. Type of assay: functional.
Another assay has as its target T5, P2Y purinoceptor 11 (Homo sapiens, UniProt Q96G91).
T5 sequence (Q96G91 whole entry): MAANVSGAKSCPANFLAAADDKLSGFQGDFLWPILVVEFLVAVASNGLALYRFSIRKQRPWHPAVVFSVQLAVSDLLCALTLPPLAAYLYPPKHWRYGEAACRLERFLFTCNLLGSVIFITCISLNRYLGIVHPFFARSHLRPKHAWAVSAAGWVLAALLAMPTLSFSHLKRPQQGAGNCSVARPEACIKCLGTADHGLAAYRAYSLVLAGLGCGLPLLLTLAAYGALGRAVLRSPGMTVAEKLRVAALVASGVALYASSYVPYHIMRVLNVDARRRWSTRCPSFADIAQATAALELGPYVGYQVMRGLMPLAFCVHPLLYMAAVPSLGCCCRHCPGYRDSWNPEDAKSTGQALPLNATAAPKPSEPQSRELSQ
Briefly: Agonist activity against phospholipase C coupled human P2Y purinoceptor 11 (P2Y11). Type of assay: functional.

Assay [12] deals with P2Y purinoceptor 12 (Homo sapiens, UniProt Q9H244). Briefly: The compound was evaluated for antagonist activity against phospholipase C coupled human P2Y purinoceptor 12 (P2Y12). Type of assay: functional.
P2Y purinoceptor 12 (Homo sapiens, UniProt Q9H244), sequence (Q9H244 whole entry): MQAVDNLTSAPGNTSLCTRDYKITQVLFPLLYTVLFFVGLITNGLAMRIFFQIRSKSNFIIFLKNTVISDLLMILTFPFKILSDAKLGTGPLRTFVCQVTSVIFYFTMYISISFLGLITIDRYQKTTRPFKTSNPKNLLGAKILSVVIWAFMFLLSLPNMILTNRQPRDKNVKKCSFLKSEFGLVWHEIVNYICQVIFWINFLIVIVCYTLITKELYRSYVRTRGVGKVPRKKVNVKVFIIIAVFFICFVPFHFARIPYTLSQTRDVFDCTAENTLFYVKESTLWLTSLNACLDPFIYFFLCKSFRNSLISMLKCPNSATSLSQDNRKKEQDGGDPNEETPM

P2Y purinoceptor 4, sequence (P51582 whole entry): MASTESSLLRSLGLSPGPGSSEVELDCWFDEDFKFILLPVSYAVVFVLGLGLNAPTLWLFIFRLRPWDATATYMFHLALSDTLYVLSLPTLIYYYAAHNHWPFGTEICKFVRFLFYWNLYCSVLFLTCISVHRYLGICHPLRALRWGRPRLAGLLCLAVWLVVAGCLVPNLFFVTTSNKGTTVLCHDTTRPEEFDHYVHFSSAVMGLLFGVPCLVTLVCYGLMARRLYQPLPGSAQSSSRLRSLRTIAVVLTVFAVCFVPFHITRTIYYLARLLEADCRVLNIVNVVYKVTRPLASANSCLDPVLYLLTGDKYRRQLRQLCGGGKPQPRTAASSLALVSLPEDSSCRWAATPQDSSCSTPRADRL

Turning to `Nc1c(S(=O)(=O)O)cc(Nc2ccc(Nc3nc(Cl)nc(Cl)n3)cc2S(=O)(=O)O)c2c1C(=O)c1ccccc1C2=O`, the IC50 is 1.6 µM at P2X purinoceptor 1 [1] and less than 1 µM in assay [2].

Turning to `CNc1nc(Cl)nc2c1ncn2CCC(COP(=O)(O)O)COP(=O)(O)O`, in assay [3], the EC50 worked out at 0.84 µM.

In the case of `CNc1ncnc2c1ncn2[C@H]1C[C@H](OP(=O)(O)O)[C@@H](COP(=O)(O)O)O1`, the EC50 at P2X purinoceptor 4 [4] is greater than 10 µM; at P2X purinoceptor 2 [5], greater than 10 µM; at P2Y purinoceptor 2, greater than 100 µM; at P2Y purinoceptor 12 [7], greater than 100 µM; at P2Y purinoceptor 4, greater than 100 µM; at P2Y purinoceptor 6, greater than 100 µM. The EC50 on P2X purinoceptor 1 [8] was 1.15 µM. Moreover, the IC50 in assay [6] was greater than 30 µM.

As to `Cc1ncc2c(c1O)COP(=O)(O)OC2`, the IC50 at P2X purinoceptor 4 [9] is greater than 100 µM. Moreover, the EC50 on P2X purinoceptor 1 [10] was 10.2 µM; at P2X purinoceptor 2 [11] it was 100 µM.

Regarding `CCCSc1nc(N)c2ncn([C@@H]3O[C@H](COP(=O)(O)OP(=O)(O)C(Cl)(Cl)P(=O)(O)O)[C@@H](O)[C@H]3O)c2n1`, the half-maximal effective concentration (EC50) at P2Y purinoceptor 11 was determined as 1.5 µM; on P2Y purinoceptor 12 [12] it was 0.0013 µM.

Broadly, the IC50 is the concentration at which inhibition is half-maximal. The term EC50 denotes the concentration at which the effect is half-maximal.
